Laboratory results published in PMC13586173, “Synthetic cannabinoid receptor agonists inhibit the cardiac voltage-gated potassium channel hERG” (Acta Pharmacologica Sinica, 2026).

Tests used:
[1] = molecular target: T1, human CB1 receptor (Homo sapiens, UniProt P21554); assay: AequoScreen intracellular calcium release assay, CHO-K1 cells stably expressing CB1; type: cell-based; conditions: n ≥ 3 (JWH-030 n = 2)
T1 construct: host or cells: CHO-K1 stably expressing CB1, apoaequorin and Gα16

[2] = molecular target: T2, hERG Y652A (Homo sapiens, UniProt Q12809, Y652A); assay: Manual patch-clamp (MPC) on hERG Y652A, transiently transfected CHO-K1 cells; type: cell-based
T2 construct: expressed in transfected cells; host or cells: CHO-K1 CCL-61 (ATCC), transient, co-transfected with pcDNA3-GFP
From the text: (§1) The hERG wild-type and Y652A constructs were kindly provided by Dr. Nicole Schmitt, and the eGFP-pcDNA3 construct was kindly provided by Dr. Antonios Pantazis. The S624A and S649A constructs were generated in-house from the wild-type template using the QuikChange II XL Site-Directed Mutagenesis Kit (Agilent Technologies, Santa Clara, CA, USA), in accordance with the manufacturer’s instructions. Mutagenesis primers were designed using the Agilent QuikChange Primer Design Program. Briefly, PCR amplification was performed according to the recommended cycling conditions, followed by DpnI digestion for 1 h to selectively degrade the parental (methylated) DNA template. The reaction products were then transformed into XL10-Gold ultracompetent cells. All constructs were verified by whole-plasmid sequencing (Eurofins Genomics, Germany) to confirm sequence accuracy.
(§2) Manual patch-clamp (MPC) recordings were performed 24–48 h post-transfection. Patch pipettes were pulled from borosilicate glass and had resistances of 4–7 MΩ when filled with intracellular solution. Coverslips with CHO-K1 cells were placed in a recording chamber and continuously perfused at room temperature (22–24 °C) with extracellular solution using a gravity-fed perfusion system. […] Compounds were applied to the recorded cells by a pressurized, automated OctaFlow perfusion system (ALA Scientific Instruments). […]

[3] = molecular target: KV7.1/KCNE1 (Homo sapiens, UniProt P51787); assay: Automated patch-clamp (APC, population patch), CHO cells stably expressing human KV7.1/KCNE1; type: cell-based
[4] = molecular target: T3, hERG S624A (Homo sapiens, UniProt Q12809, S624A); assay: Manual patch-clamp (MPC) on hERG S624A, transiently transfected CHO-K1 cells; type: cell-based
T3 construct: expressed in transfected cells; host or cells: CHO-K1 CCL-61 (ATCC), transient, co-transfected with pcDNA3-GFP
From the text: as §1, §2

[5] = Literature concentrations detected in post-mortem cases; conditions: conversion of cited ng/mL value
[6] = molecular target: T4, hERG WT (Homo sapiens, UniProt Q12809); assay: Manual patch-clamp (MPC) on hERG wild type; type: cell-based
T4 construct: expressed in transfected cells
Protocol: Manual patch-clamp (MPC) recordings were performed 24–48 h post-transfection. Patch pipettes were pulled from borosilicate glass and had resistances of 4–7 MΩ when filled with intracellular solution. Coverslips with CHO-K1 cells were placed in a recording chamber and continuously perfused at room temperature (22–24 °C) with extracellular solution using a gravity-fed perfusion system. The intracellular and extracellular solutions used for MPC were identical to those used for APC electrophysiology (see above). Extracellular solution without DMSO was used as a vehicle. Compounds were diluted from the stock solution as a series of dilutions in extracellular solution (i.e., no compensation for different concentrations of DMSO in recording solutions). Compounds were applied to the recorded cells by a pressurized, automated OctaFlow perfusion system (ALA Scientific Instruments).
Each voltage protocol was first run three times in extracellular solution, the 3rd serving as the baseline. Voltage protocols were repeated in the presence of cumulatively rising concentrations of test compound; each concentration was present for 30 s before the recording started. The signals were sampled at 5 kHz after low-pass filtering at 2 kHz.
For Gmax (rel.), N was set to –1. For ΔV50, N was set to 1.

[7] = molecular target: T5, hERG S649A (Homo sapiens, UniProt Q12809, S649A); assay: Manual patch-clamp (MPC) on hERG S649A, transiently transfected CHO-K1 cells; type: cell-based
T5 construct: expressed in transfected cells; host or cells: CHO-K1 CCL-61 (ATCC), transient, co-transfected with pcDNA3-GFP
From the text: as §1, §2

[8] = cited from earlier work

Chain of KV7.1/KCNE1 (P51787 whole entry): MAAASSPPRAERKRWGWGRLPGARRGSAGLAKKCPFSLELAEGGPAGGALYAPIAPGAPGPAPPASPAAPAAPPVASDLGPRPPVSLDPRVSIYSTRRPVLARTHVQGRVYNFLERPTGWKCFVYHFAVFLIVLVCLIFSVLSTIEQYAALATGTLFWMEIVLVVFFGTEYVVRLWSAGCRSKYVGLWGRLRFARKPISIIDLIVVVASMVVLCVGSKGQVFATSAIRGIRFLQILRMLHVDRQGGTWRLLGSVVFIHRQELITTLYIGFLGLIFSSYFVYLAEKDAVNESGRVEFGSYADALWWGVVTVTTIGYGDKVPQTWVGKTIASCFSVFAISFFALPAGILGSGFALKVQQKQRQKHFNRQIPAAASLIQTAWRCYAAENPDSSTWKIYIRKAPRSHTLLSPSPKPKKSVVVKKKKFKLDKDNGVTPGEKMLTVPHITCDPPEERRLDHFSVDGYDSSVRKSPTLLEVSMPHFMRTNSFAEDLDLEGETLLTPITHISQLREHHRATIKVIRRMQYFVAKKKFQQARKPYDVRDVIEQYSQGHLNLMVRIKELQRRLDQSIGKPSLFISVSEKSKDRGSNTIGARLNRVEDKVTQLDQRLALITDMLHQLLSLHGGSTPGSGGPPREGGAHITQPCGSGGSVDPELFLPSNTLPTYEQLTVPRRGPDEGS
T1 sequence (P21554 whole entry): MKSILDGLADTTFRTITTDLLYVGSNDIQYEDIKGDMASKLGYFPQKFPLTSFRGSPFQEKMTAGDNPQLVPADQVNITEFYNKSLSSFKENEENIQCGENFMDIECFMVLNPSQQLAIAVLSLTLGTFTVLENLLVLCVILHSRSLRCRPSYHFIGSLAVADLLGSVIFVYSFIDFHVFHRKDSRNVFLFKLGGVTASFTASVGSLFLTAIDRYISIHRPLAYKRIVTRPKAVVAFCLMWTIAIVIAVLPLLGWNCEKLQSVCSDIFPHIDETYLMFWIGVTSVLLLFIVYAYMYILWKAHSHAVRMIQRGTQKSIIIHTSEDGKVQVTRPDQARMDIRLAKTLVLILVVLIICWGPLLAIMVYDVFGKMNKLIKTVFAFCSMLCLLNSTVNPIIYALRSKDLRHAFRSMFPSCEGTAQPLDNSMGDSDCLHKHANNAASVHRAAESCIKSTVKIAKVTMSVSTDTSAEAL
T2 sequence (Q12809 whole entry Y652A): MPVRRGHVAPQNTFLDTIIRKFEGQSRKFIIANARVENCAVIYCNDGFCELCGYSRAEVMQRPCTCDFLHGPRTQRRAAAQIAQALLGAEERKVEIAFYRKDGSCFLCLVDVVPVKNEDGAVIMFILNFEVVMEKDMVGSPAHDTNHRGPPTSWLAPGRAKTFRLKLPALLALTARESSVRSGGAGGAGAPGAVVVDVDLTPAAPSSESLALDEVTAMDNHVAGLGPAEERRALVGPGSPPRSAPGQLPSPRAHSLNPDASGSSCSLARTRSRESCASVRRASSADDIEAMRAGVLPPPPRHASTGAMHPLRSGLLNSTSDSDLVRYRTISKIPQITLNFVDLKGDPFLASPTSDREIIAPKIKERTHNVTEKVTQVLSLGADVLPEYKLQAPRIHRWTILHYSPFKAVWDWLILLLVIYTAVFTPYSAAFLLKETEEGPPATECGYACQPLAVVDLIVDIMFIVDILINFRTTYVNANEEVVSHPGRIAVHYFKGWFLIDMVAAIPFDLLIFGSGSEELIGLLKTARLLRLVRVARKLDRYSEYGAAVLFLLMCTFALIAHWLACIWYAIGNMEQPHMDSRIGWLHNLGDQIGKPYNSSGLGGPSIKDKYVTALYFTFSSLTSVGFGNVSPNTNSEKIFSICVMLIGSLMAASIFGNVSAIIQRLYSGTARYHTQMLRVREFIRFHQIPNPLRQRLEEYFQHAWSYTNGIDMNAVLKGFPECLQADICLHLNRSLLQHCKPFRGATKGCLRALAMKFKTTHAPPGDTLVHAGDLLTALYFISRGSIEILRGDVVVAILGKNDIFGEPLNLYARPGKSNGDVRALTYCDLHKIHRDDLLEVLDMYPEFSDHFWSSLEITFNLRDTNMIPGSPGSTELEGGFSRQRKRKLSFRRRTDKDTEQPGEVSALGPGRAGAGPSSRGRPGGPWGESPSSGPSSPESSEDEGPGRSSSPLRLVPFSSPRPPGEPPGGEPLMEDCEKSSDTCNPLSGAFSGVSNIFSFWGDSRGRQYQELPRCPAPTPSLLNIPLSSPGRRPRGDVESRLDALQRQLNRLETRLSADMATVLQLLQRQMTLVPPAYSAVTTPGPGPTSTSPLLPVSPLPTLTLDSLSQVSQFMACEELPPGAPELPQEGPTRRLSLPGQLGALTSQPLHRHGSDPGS
T3 sequence (Q12809 whole entry S624A): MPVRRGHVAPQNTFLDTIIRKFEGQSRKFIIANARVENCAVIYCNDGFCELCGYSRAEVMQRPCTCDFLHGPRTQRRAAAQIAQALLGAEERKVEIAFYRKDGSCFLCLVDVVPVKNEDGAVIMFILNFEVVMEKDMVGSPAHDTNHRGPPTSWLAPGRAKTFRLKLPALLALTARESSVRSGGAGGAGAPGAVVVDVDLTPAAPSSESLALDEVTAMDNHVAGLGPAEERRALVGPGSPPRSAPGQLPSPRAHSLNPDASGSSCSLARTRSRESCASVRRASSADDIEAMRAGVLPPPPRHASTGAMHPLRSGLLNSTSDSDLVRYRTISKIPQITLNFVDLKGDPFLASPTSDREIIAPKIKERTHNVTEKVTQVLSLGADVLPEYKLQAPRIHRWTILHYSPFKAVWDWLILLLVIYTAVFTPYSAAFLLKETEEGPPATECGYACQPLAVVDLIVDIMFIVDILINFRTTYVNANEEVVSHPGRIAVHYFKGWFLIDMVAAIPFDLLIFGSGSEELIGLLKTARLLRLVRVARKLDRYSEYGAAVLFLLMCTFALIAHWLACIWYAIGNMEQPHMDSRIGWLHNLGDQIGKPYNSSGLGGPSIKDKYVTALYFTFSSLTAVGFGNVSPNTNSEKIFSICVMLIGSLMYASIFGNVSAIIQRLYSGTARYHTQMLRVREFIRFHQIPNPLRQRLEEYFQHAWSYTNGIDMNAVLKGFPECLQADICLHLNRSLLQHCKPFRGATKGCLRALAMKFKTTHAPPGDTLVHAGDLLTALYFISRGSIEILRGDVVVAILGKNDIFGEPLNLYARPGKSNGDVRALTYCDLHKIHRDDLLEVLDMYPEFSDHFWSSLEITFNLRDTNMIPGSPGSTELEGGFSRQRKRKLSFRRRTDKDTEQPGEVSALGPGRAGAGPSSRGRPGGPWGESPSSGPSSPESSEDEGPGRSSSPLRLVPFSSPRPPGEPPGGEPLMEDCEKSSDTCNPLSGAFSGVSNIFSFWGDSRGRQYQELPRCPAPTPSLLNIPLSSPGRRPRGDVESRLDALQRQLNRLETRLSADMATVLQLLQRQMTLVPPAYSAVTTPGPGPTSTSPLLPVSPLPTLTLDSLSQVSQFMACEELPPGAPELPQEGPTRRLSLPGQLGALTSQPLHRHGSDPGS
T5 sequence (Q12809 whole entry S649A): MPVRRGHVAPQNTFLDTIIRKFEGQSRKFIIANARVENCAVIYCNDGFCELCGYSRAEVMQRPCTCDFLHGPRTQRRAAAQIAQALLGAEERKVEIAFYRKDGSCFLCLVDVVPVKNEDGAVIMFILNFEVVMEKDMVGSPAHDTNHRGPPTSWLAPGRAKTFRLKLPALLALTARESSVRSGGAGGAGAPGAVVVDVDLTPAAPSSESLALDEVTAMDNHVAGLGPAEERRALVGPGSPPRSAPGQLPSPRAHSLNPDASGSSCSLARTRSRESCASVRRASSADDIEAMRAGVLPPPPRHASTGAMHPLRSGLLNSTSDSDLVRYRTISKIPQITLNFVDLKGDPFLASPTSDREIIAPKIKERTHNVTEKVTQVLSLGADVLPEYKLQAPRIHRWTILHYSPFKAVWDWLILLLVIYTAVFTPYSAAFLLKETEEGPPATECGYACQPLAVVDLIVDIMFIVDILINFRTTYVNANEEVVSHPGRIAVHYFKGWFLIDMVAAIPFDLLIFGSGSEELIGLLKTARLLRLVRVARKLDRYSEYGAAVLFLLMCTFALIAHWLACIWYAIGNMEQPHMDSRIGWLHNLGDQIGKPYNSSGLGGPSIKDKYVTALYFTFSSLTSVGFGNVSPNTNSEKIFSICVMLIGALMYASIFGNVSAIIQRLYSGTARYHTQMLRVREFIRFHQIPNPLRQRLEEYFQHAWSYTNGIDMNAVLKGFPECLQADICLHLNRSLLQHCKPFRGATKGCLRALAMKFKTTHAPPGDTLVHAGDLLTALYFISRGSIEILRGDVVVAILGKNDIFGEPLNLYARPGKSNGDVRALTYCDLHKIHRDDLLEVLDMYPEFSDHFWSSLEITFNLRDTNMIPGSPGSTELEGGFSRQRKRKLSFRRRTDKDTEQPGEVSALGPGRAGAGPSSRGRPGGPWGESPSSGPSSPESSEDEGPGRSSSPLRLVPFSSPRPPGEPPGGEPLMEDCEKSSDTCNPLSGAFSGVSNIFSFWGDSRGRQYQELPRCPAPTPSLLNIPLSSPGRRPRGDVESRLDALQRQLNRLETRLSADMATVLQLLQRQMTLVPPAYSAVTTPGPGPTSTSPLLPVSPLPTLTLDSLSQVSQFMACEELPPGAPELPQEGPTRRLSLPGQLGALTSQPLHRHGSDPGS

## COC(=O)C(NC(=O)c1nn(CCCCCF)c2ccccc12)C(C)(C)C (centres unmarked) [5F-MDMB-PINACA, methyl 2-{[1-(5-fluoropentyl)-1H-indazole-3-carbonyl]amino}-3,3-dimethylbutanoate]
[1]; CB1 receptor Potency EC50, normalized to median EC50 of JWH-018
  EC50: 0.00899 µM
[1]; normalized to maximum of JWH-018
  CB1 receptor Efficacy Emax: 131 % JWH-018
[2]
  IC50: 7.8 µM
[3]
  IC50: 71.4 µM
[3]; 10 µM, both channels by APC
  Gmax effect on hERG versus KV7.1/KCNE1 (in words): effects only on hERG
[3]; APC
  effect on KV7.1/KCNE1 (in words): small effect on KV7.1/KCNE1
[3]; best fit, 1 = no reduction of Gmax, 0 = complete reduction
  KV7.1/KCNE1 channel Efficacy (max reduction in Gmax) Gmin: 0
[4]
  IC50: 9.6 µM
[5]; blood or serum samples
  concentration in post-mortem cases, blood or serum (converted): ≈ 5.3 nM
[5]; heart muscle
  concentration in post-mortem case, heart muscle (converted): ≈ 4.8 nM
[6]
  IC50: 4 µM
[7]
  IC50: 16.7 µM
[8]; blood or serum samples
  concentration in post-mortem cases, blood or serum: approximately 2 ng/mL
[8]; heart muscle
  concentration in post-mortem case, heart muscle: 1.82 ng/mL
